From patent US20210177879A1, “VITAMIN D RECEPTOR AGONIST” (Guanghzou University of Chinese Medicine, priority 2018, published 2021)

Assays:
[1] = system: peripheral blood macrophages; experiment: Typing of peripheral blood macrophages by flow cytometry; type: in vivo, Balb/c mice; settings: compared with normal group
Description: Experimental method: 90 Balb/c mice of 6-8 weeks were purchased from the Experimental Animal Center in Guangzhou University of Chinese Medicine, weighed about 18-22 g, and subjected to adaptive feeding for 10 days. Modeling was divided into three stages. In the first stage, except for the normal group of animals being given saline injection, each of the other animals were intraperitoneally injected with a carcinogen AOM (10 mg/kg), and given free access to 2% DSS water from the next day for 7 days, and then given access to replaced regular drinking water for 14 days. In the second stage, the animals were given free access to 2% DSS water for 10 days, and then given access to replaced regular drinking water for 14 days. In the third stage, the animals were given free access to 2% DSS water for 10 days, and then given access to replaced regular drinking water for 11 days. The normal group was given access to regular drinking water throughout the experiment. The diet, water drinking and body weights of the animals were recorded daily and DAI scores were made, and the animals were killed and harvested at the 10th week. In this experiment, the animals were divided into groups and administrated on the first day of a modeling period of the second stage, and the total number of groups was set to 5 groups. […] Dosing was conducted daily until dissection. […]

HT29 transplanted tumor = experiment: Transplanted tumor of HT29 colon cancer cells in nude mice; type: in vivo; settings: 2 mg/kg in combination with 5-fluorouracil at half dose (20 mg/kg), once a day; effect comparable to 5-fluorouracil alone 40 mg/kg
Description: (§1) The HT29 cells were thawed, and cultured in a changed medium after 24 hours. Medium preparation method: 6% serum, 1% of a bispecific antibody+a 1640 basal medium. After grown to confluent, the cells were digested and subcultured to expand the number of cells. When reached the required amount, the cells were digested by trypsin, centrifuged, and resuspended in PBS to prepare a cell suspension of 1×10^8 cells/ml. A part of the cell suspension was added with the monotropein, desacetyl asperulosidic acid, asperuloside, and asperulosidic acid respectively, and the inhibition rate (%) of tumor cell proliferation by each of these different compounds was examined.
(§2) Male adult nude mice, which had the body weights of 20-24 g, were purchased from Guangdong Medical Laboratory Animal Center. After 7 days of adaptive feeding of the animals, except for the blank group, the remaining animals were injected with 0.2 ml of a cell suspension in PBS at ventrodorsal and scapula sites of them, the response conditions of the animals were observed, and the body weights of the animals were determined once a week. After 2 weeks of observation, the animals were grouped into the following groups according to tumor size: a blank group; a model group; a 5-fluorouracil control group (5-Full, 40 mg/kg); monotropein+5-fluorouracil (2 mg/kg monotropein+20 mg/kg 5-fluorouracil), desacetyl asperulosidic acid+5-fluorouracil (2 mg/kg desacetyl asperulosidic acid+20 mg/kg 5-fluorouracil), asperuloside+5-fluorouracil (2 mg/kg asperuloside+20 mg/kg 5-fluorouracil), asperulosidic acid+5-fluorouracil (2 mg/kg asperulosidic acid+20 mg/kg 5-fluorouracil), these groups being labeled as: Mo, As, Aa, Da. Each group included 8 animals; and administration was conducted once a day.
(§3) The status, death conditions, and eating and drinking conditions of the animals were observed daily. The body weights of the animals were determined once a week and the tumor size of the animals was determined every 4 days. The tumor volume of the animals was determined by using a vernier caliper. After 1 month of administration, the animals were sacrificed after blood was sampled from the orbit thereof, and the tumor was separated and weighed.

[2] = system: transplanted tumor of SW1990 breast cancer cells; experiment: Transplanted tumor of SW1990 breast cancer cells in nude mice; type: in vivo; settings: 2 mg/kg in combination with 5-fluorouracil at half dose (20 mg/kg), once a day; effect comparable to 5-fluorouracil alone 40 mg/kg
Description: as §1, with “SW1990” for “HT29”
as §2, with “of a SW1990 cell suspension” for “of a cell suspension”
as §3

[3] = system: SMB-231 pancreatic cancer cells; experiment: In vitro proliferation inhibition of SMB-231 pancreatic cancer cells; type: cell-based; settings: concentration of 1 uM; compared with blank control group
Description: as §1, with “SMB-231 pancreatic cancer” for “HT29”

O=C(O)C1=CO[C@@H](O[C@@H]2O[C@H](CO)[C@@H](O)[C@H](O)[C@H]2O)[C@H]2[C@@H]1C=C[C@]2(O)CO [monotropein]
M1/M2 ratio of peripheral blood macrophages [1]: up-regulating trend | tumor proliferation in HT29 tumor-bearing mice (HT29 transplanted tumor): significantly inhibit tumor proliferation | tumor proliferation in SW1990 tumor-bearing mice [2]: significantly inhibit tumor proliferation | proliferation of SMB-231 pancreatic cancer cells in vitro [3]: significantly inhibit the proliferation
